Assay results as given in the NIST ThermoML archive (doi:10.1016/j.fluid.2008.03.013).

Settings: Transpiration method

CCC1COC(=O)O1 (stereo unspecified) [1,2-butylene carbonate]
Liquid
Settings | vapor or sublimation pressure [kPa]
288.6 K | 0.00186
293.5 K | 0.00284
298.5 K | 0.00453
303.4 K | 0.00649
307.3 K | 0.0087
310.3 K | 0.01164
313.3 K | 0.01439
316.3 K | 0.01837
319.3 K | 0.02281
322.5 K | 0.02805
327.4 K | 0.04092
330.3 K | 0.04839
333.6 K | 0.06415
338.7 K | 0.086
343.8 K | 0.1159

CC1COC(=O)O1 (stereo unspecified) [4-methyl-1,3-dioxolan-2-one]
Liquid
Settings | vapor or sublimation pressure [kPa]
298.4 K | 0.0085
303.3 K | 0.01247
308.2 K | 0.0181
311.3 K | 0.0223
313.2 K | 0.02529
318.2 K | 0.03723
321.2 K | 0.04503
322.7 K | 0.05193
324.2 K | 0.05893
326.6 K | 0.06788
329.6 K | 0.08307
332.7 K | 0.1019
335.7 K | 0.1281
337.7 K | 0.1375
338.8 K | 0.1525
340.8 K | 0.1721
341.8 K | 0.1787
344.9 K | 0.2178

O=C1OCCO1 [ethylene carbonate]
Settings | vapor or sublimation pressure [kPa]
280.6 K, Crystal | 0.00062
286.2 K, Crystal | 0.00119
291.3 K, Crystal | 0.002
295.5 K, Crystal | 0.00325
299.4 K, Crystal | 0.00472
303.2 K, Crystal | 0.00675
304.4 K, Crystal | 0.00785
306.4 K, Crystal | 0.00907
308.4 K, Crystal | 0.01077
310.3 K, Liquid | 0.012
314.4 K, Liquid | 0.01615
314.5 K, Liquid | 0.01614
317.3 K, Liquid | 0.02
320.3 K, Liquid | 0.02499
320.4 K, Liquid | 0.02475
323.5 K, Liquid | 0.0305
324.4 K, Liquid | 0.03281
327.4 K, Liquid | 0.03939
328.6 K, Liquid | 0.04312
331.3 K, Liquid | 0.05119
333.6 K, Liquid | 0.05962
335.4 K, Liquid | 0.06848
338.7 K, Liquid | 0.08312
341.4 K, Liquid | 0.0978
342.3 K, Liquid | 0.1031
343.8 K, Liquid | 0.1094
345.2 K, Liquid | 0.1213
347.6 K, Liquid | 0.1379
349 K, Liquid | 0.154
352.4 K, Liquid | 0.1869
354 K, Liquid | 0.2037
357.5 K, Liquid | 0.2473
358.9 K, Liquid | 0.2642
360.6 K, Liquid | 0.292
363.2 K, Liquid | 0.3283
364.1 K, Liquid | 0.3486
366.7 K, Liquid | 0.4047
369.5 K, Liquid | 0.4694

O=C1OCC(CO)O1 (stereo unspecified) [glycerine carbonate]
Liquid
Settings | vapor or sublimation pressure [kPa]
330.2 K | 0.00029
333.2 K | 0.00039
338.3 K | 0.00062
343.2 K | 0.00091
348.4 K | 0.00144
351.2 K | 0.00173
355.5 K | 0.0025
359.8 K | 0.00368
360.6 K | 0.00362
363.7 K | 0.00433
366.4 K | 0.00542
369.4 K | 0.00681
371.8 K | 0.00782
373.2 K | 0.00886
377.2 K | 0.01171
384.5 K | 0.02019
387.3 K | 0.02392
388 K | 0.02471
392.7 K | 0.03339
398.5 K | 0.04694
